Assay [1] concerns splenocytes and lymph node cells. The assay can be described thus: Cytokines secreted from splenocytes and lymph node cells by CBA. Type of assay: cell-based, mouse. As to conditions: cells from mice injected with bavachin together with OVA vs OVA alone; day 28; treated with OVA 48 hours; FIG. 4. As for the experimental part:
(§1) C57/BL6 mice were immunized with a mixture of OVA (10 μg) and bavachin (10 μg) or a mixture of OVA (10 μg) and bavachin (100 μg) by subcutaneous injection once every 1, 3, and 4 weeks. In this regard, those injected with OVA (10 μg) alone was used as a control.
(§2) Briefly, at 28 days after the first immunization, lymph nodes and spleens were removed from 5 mice per the treated mouse group (0.5% CMC (CON), OVA, Bavachin […], OVA+Bavachin), and ground to isolate cells from the tissue capsule. The spleens were subjected to hemolysis by treatment with an RBC lysis buffer, and splenocytes were isolated.
(§3) The isolated splenocytes and lymph node cells were dispensed in a 96-well-plate at a density of 1×10^6 cells/well, followed by treated with OVA for 48 hours. Thereafter, cell proliferation was measured by MTS (FIG. 3), and cytokines (IFN-γ, IL-2, IL-4, IL-6, IL-10, and TNF) secreted from the cells were measured by CBA (FIG. 4).

For assay [2], the system named is C57/BL6 mice. The experiment in a line: OVA-specific IgG antibody titer in mouse sera by ELISA. In kind it is in vivo. As to conditions: mice injected s.c. with bavachin (10 or 100 μg) together with OVA (10 μg) vs OVA alone; sera at 28 and 42 days; FIG. 1. The method, then:
as §1
At 28 days and 42 days after the first immunization in Example 2, mouse sera were collected, and the titers of antigen-specific IgG antibodies in the sera were measured by way of ELISA (FIG. 1). At this time, in the ELISA method, an OVA-coated plate was blocked, and then sera of a control group and an experimental group were incubated at various serial dilution rates. Thereafter, horseradish peroxidase-conjugated mouse-IgG and IgG1 antibodies were added, and a substrate was added and allowed to react, followed by measurement with an ELISA reader.
On the technique in general: ELISA stands for enzyme-linked immunosorbent assay.

The test system of assay [3] is C57/BL6 mice. The assay can be described thus: Percentages of CD4 and CD8 cells in splenocytes by FACS analysis. As to conditions: mice injected with bavachin together with OVA vs OVA alone; FIG. 6. In kind it is in vivo, mouse. The method, then: as §1, §2
Therefore, percentages of CD4 cells and CD8 cells were compared by performing FAGS analysis of the splenocytes (FIG. 6).
On the technique in general: A flow cytometer gives signals particle by particle.

The subject of assay [4] is C57/BL6 mice. The experiment in a line: Percentages of effector T cells in lymph node cells by FACS analysis. As to conditions: mice injected with bavachin together with OVA vs OVA alone; FIG. 7. In kind it is in vivo, mouse. As for the experimental part: as §1, §2
Further, percentages of CD44^+CD62L^−CD4 cells and CD44^+CD62L^−CD8 cells, which are effector T cells, were compared by performing FAGS analysis of the lymph node cells (FIG. 7).

Assay [5] relates to splenocytes and lymph node cells. The experiment in a line: Antigen-specific cell proliferation of splenocytes and lymph node cells by MTS. Type of assay: cell-based, mouse. The note with it: cells from mice injected with bavachin together with OVA vs OVA alone; day 28; treated with OVA 48 hours; FIG. 3. As for the experimental part: as §1, §2, §3
Assay [6] deals with C57/BL6 mice. The experiment in a line: Total numbers of splenocytes and lymph node cells. Type of assay: in vivo, mouse. As to conditions: mice injected with bavachin together with OVA vs OVA alone; day 28; FIG. 5. The method, then:
as §1, §2
The total numbers of the splenocytes and lymph node cells obtained in Example 5 were counted (FIG. 5).

For assay [7], the system named is C57/BL6 mice. The experiment in a line: Serum immunoglobulin isotyping assay (CBA isotyping kit). In kind it is in vivo, mouse. As to conditions: mice injected with bavachin together with OVA vs OVA alone; FIG. 2. The method, then: as §1
Antibody subclasses in the mouse sera collected in Example 3 were stained with CBA (Cytometric Bead Array) isotyping kit and analyzed by FAGS (FIG. 2).

On to `CC(C)=CCc1cc2c(cc1O)O[C@H](c1ccc(O)cc1)CC2=O` [bavachin], for which, in assay [1], the “levels of cytokines (IFN-γ, IL-2, IL-4, IL-6, IL-10, and TNF) secreted from lymph node cells” value was “relatively high levels”; the “levels of cytokines (IFN-γ, IL-2, IL-4, IL-6, IL-10, and TNF) secreted from splenocytes” value is reported as “relatively high levels”. In addition, the OVA-specific antibody titers result with C57/BL6 mice [2] is “significantly increased”. Moreover, in the assay on C57/BL6 mice [3], the “percentage of CD4 cells in splenocytes” value is on record as “relatively high levels” and the “percentage of CD8 cells in splenocytes” value is “relatively high levels”. In addition, in the assay on C57/BL6 mice [4], the “percentages of effector T cells (CD44+CD62L−CD4 and CD44+CD62L−CD8) in lymph node cells” value is given as “relatively high levels”. For the same compound, in assay [5], the “cell proliferation ability of lymph node cells” value is listed as “relatively excellent cell proliferation ability” and the “cell proliferation ability of splenocytes” value was “relatively excellent cell proliferation ability”. Also, in the assay with C57/BL6 mice [6], the “number of lymph node cells” value was “relatively high levels” and the number of splenocytes entry is reported as “no significant difference”. In the assay with C57/BL6 mice [7], the “IgA immunoglobulin level in sera” value was “relatively high levels” and the “IgG1 immunoglobulin level in sera” value is given as “relatively high levels”.

The values above are taken from patent US20220409723A1, “NOVEL VACCINE ADJUVANT COMPOSITION INCLUDING BAVACHIN” (KOREA INSTITUTE OF ORIENTAL MEDICINE, priority 2019, published 2022).
